In patent publication EP4813463A2, “TYK2 INHIBITORS AND COMPOSITIONS AND METHODS THEREOF” (Lynk Pharmaceuticals Co. Ltd., priority 2023, dated 2024):
In brackets after ≈: the same amount, converted by molar mass. Like-named read-outs stand apart in the source and are kept apart here.

Experiments:
JAK1-JH2 domain = target: T1, JAK1-JH2 domain (Homo sapiens, UniProt P23458); assay: Binding activity test for JH2 domain of JAK1 (Tb-antibody/tracer FRET); settings: JH2 domain enzyme; 60 min at 25°C, then 4°C overnight; read-out: JAK1 JH2 Binding IC50
T1 construct: JAK1-JH2 domain or TYK2-JH2 domain enzyme in assay buffer
How it was run: (§1)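 Competitive TR-FRET binding: compounds dispensed as an 11-point 3-fold dilution series, then Tb-labelled antibody and tracer added to the JH2 protein system. Incubated at 25°C, then overnight at 4°C; FRET signal read on Envision and IC50 (nM) derived.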

Kinetic solubility = assay type: physicochemical; settings: phosphate buffer, pH 7.4, aqueous buffer, kinetic from dmso stock, 100 mM pH 7.4 phosphate buffer, 1% DMSO, room temperature, read-out: Kinetics Solubility_PBS7.4
Protocol: Aliquots of 8 µL of reference and test compound stock solutions (10 mM/5 mM) are added into 792 µL of 100 mM pH 7.4 phosphate buffer. The final DMSO concentration is 1%. Sample tubes are shaken for 2 hours at 1000 rpm at room temperature. Samples are centrifuged at 12000 rpm for 10 min to precipitate un-dissolved particles. And transfer the supernatants to a new tube or plate. Add 5 µL of samples (no diluted, 10 times diluted, and 100 times diluted) and standard curve samples to 95 µL of ACN containing IS for LC-MS/MS analysis. Kinetic Solubilities Values of Exemplary Compounds

TYK2-JH2 domain = target: T2, TYK2-JH2 domain (Homo sapiens, UniProt P29597); assay: Binding activity test for JH2 domain of TYK2 (Tb-antibody/tracer FRET); settings: for IC50: JH2 domain enzyme, 60 min at 25°C, then 4°C overnight, read-out: TYK2 JH2 Binding IC50; for JAK1/TYK2 selectivity: ratio of JAK1 JH2 to TYK2 JH2 binding IC50
T2 construct: JAK1-JH2 domain or TYK2-JH2 domain enzyme in assay buffer
How it was run: as §1

[1] = test system: Ba/F3-FL-TYK2-P760L cells; assay: Anti-proliferative assay in engineered Ba/F3 cells (Cell-Titer Glo, 72 h); assay type: cell-based; settings: 72 h compound treatment, concentration that causes 50% growth inhibition, read-out: Baf3-FL-T2P760L
How it was run: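 Ba/F3 cells carrying Tel-dimerization/JAK kinase fusion, IL-3-independent, in RPMI-1640 + 10% FBS; 9-point 3-fold dilutions from 20 µM (0.1% DMSO) added after 24 h, 72 h at 37 °C. Viability by Cell-Titer Glo ATP luminescence; % inhibition versus DMSO cells, blank-corrected, giving IC50.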

pSTAT1 = assay: Phosphorylation inhibition of STAT in human whole blood (IFN-alpha stimulated, flow cytometry); assay type: cell-based; settings: T-cell, 20 min, IFN-alpha stimulation 20 mins, CD3 T cells, read-out: pSTAT1 inhibition in hWB (IC50)
Protocol: The inhibitory potential of test articles in human whole blood assay was evaluated by the method of flow cytometry.
IFN-alpha will activate JAK1 and TYK2 kinase in T cells by binding to IFN receptors, and then lead to phosphorylation of STAT1 and STAT2. The phosphorylated STAT1 enter nuclear and promote transcription and expression of IFN-gamma. To evaluate the efficacy of TYK2i in T cells, freshly collected human whole blood will be stimulated with certain unit of human IFN-alpha (Universal Type I IFN(1MU), R&D, 11200-2) for 20 mins in incubator. After stimulation, fix cells with Phosflow™ Fix Buffer I (BD, 557870), and then collect fixed cells by centrifugation (500 g, 8min). Wash cells once with pre-cooled PBS, and then permeabilize cells with cold Perm Buffer III buffer (BD, 558050) for 45 mins on ice. Collect cells by centrifugation (600 g, 8min) and washed twice with cold PBS. Stain cells with anti-human CD3(FITC Mouse Anti-Human CD3, BD, 555332) and anti-pSTAT1_Y701(Alexa Fluor 647 Mouse Anti-Stat1 (pY701), BD, 612597) antibodies. Detect pSTAT1 by flow cytometry (CytoFlex S) and analyze data with FlowJo and GraphPad Prism 8 software. IC50 values of test articles were determined using 4- parameter logistic equation.

[2] = Brain pharmacokinetic studies in rats; assay type: in vivo, Sprague-Dawley rats
Protocol: Pharmacokinetic profiles of test articles were evaluated in fasted Sprague-Dawley rats. Different kinds of formulations were designed to ensure test articles fully dissolved and wouldn't precipitate in 1:10 SGF or FaSSIF dilution. Typically, Rats were dosed with 3 mg/kg and 5 mg/kg by intravenous injection and oral gavage, respectively. The animal was restrained manually at the designated time points, approximately 150 µL of blood sample was collected via jugular vein for serial bleeding into K2EDTA tubes. The blood samples were maintained in wet ice first and centrifuged to obtain plasma (2000g, 4°C, 5 min) within 30 minutes post sampling. Anesthetizing the rat with the Isoflurane vaporizer to 2%~3% and place its back on the operation table. Spread the animal limbs and pin the limbs on the operation table. Make a cut along the sternum about 4cm long, low enough to expose the sternum's end. Expose the heart and use a 25-gauge needle connected with a 20 mL syringe filled with 20 mL of cold saline to pierce the left ventricle. Maintain the placement of the needle, and slowly push the syringe plunger to wash the brain with saline. The perfusion will be finished within about 2 min and then take the brain out of the body carefully without damaging the tissue. Dry the tissue on filtrate paper, which should be placed on ice, and then weigh the brain tissue and store at -70 °C and analyzed by LC/MS/MS for quantification. PK parameter values, including, but not necessarily limited to, the maximum plasma concentrations (Cmax), and the area under the plasma concentration vs. time curve (AUC) from time zero to 24-hour (AUC0-24h) were determined using WinNonlin program. Table 13. Systemic Pharmacokinetic Parameters in Sprague-Dawley Rats

[3] = Microsomal metabolic stability assay; assay type: in vitro ADME; settings: human, liver microsomes, pH 7.4, 0.5 mg/mL microsomal protein, 1 µM test article, 2 mM NADPH; for microsomal CLint at 1 µM: read-out: Human LM Clint; for half-life at 1 µM: read-out: Human LM T1/2
How it was run: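 Test or control compound (1 µM) incubated with microsomes (0.5 mg/mL protein) in 100 mM potassium phosphate pH 7.4, 1.0 mM EDTA at 37°C, started with NADPH regenerating system (2 mM NADPH). Sampled at 0, 5, 15, 30, 45 min, acetonitrile-quenched, LC/MS/MS. T1/2 from ln %remaining vs time slope; CLint = 0.693/T1/2 per mg protein/mL.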

T2 sequence (P29597 589-875 limits assumed): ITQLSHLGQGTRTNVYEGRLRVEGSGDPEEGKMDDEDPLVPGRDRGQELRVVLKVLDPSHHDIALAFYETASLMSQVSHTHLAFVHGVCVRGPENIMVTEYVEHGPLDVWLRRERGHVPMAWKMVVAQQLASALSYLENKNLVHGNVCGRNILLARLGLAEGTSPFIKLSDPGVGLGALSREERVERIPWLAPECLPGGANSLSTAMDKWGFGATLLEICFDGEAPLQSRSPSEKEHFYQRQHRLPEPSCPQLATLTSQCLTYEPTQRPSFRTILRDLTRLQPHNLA
T1 sequence (P23458 583-855 limits assumed): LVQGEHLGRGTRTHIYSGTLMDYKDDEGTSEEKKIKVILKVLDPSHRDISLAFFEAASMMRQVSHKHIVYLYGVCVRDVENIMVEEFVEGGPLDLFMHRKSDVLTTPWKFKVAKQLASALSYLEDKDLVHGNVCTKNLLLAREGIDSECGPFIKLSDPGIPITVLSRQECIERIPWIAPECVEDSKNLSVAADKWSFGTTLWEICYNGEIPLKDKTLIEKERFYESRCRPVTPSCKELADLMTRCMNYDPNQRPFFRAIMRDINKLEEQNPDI

Compound | IC50 (JAK1-JH2 domain) | solubility kinetic at 2 h (Kinetic solubility) | IC50 (TYK2-JH2 domain) | JAK1/TYK2 selectivity (TYK2-JH2 domain) | IC50 ([1]; Mus musculus, BaF3, 72 h) | IC50 (pSTAT1) | half-life ([2]; Sprague-Dawley, rat, brain, rats, iv, 3 mg/kg, solution) | Kp ([2]; Sprague-Dawley, rat, brain, rats, iv, 3 mg/kg, solution, read-out: Brain AUC/Systemic AUC) | half-life ([2]; Sprague-Dawley, rat, systemic (plasma), rats, iv, 3 mg/kg, solution) | AUC ([2]; Sprague-Dawley, rat, systemic (plasma), rats, iv, 3 mg/kg, solution, read-out: AUC) | AUC ([2]; brain, rats, iv, 3 mg/kg, solution) | brain exposure in Rats ([2]; result in words) | microsomal CLint at 1 µM [3] | half-life at 1 µM [3] | IC50 [1]
[2H]C([2H])([2H])NC(=O)c1cnc(NC(=O)C2CC2)cc1Nc1cnn2ccc(Cl)c(OC)c12 [Example 3, 4-((5-Chloro-4-methoxypyrazolo[1,5-a]pyridin-3-yl)amino)-6-(cyclopropanecarboxamido)-N-(methyl-d3)nicotinamide] | 13.4 nM | 15.1 µM (≈ 6.31 µg/mL) | 0.223 nM | 59.9 | 43.6 nM | 177 nM | – | – | – | – | – | – | – | – | –
[2H]C([2H])([2H])NC(=O)c1cnc(NC(=O)C2CC2)cc1Nc1nn(C)c2ccc([C@H](OC)C(F)(F)F)c(OC)c12 [Example 46A, (S)-6-(cyclopropanecarboxamido)-4-((4-methoxy-1-methyl-5-(2,2,2-trifluoro-1-methoxyethyl)-1H-indazol-3-yl)amino)-N-(methyl-d3)nicotinamide] | 3.01 nM | 8.16 µM (≈ 4.16 µg/mL) | 0.074 nM | 40.64 | 0.31 nM | 33 nM | – | – | – | – | – | – | – | – | –
[2H]C([2H])([2H])NC(=O)c1cnc(NC(=O)C2CC2)cc1Nc1cn(C)c2ccc(CC)c(OC)c12 [Example 2, 6-(Cyclopropanecarboxamido)-4-((5-ethyl-4-methoxy-1-methyl-1H-indol-3-yl)amino)-N-(methyl-d3)nicotinamide] | 5.24 nM | 15.3 µM (≈ 6.5 µg/mL) | 0.333 nM | 15.7 | 17 nM | 141 nM | – | – | – | – | – | – | – | – | –
[2H]C([2H])([2H])NC(=O)c1cnc(NC(=O)C2CC2)cc1Nc1cnn2ccc(C)c(OC)c12 [Example 5, 6-(Cyclopropanecarboxamido)-4-((4-methoxy-5-methylpyrazolo[1,5-a]pyridin-3-yl)amino)-N-(methyl-d3)nicotinamide] | 6.62 nM | 57.4 µM (≈ 22.8 µg/mL) | 0.137 nM | 48.3 | 32 nM | 139 nM | – | – | – | – | – | – | – | – | –
COC(=O)c1cnc(NC(=O)C2CC2)cc1Nc1cnn2ccc([C@H](OC)C(F)(F)F)c(OC)c12 [Example 42, Methyl (S)-6-(cyclopropanecarboxamido)-4-((4-methoxy-5-(2,2,2-trifluoro-1-methoxyethyl)pyrazolo[1,5-a]pyridin-3-yl)amino)nicotinate] | 79 nM | – | 0.202 nM | 391.2 | 104 nM | – | 15 min | 1.99 | 20.4 min | 646 ng·h/mL | 1286 ng·h/g | good brain exposure | – | – | –
[2H]C([2H])([2H])NC(=O)c1cnc(NC(=O)C2CC2)cc1Nc1nn(C)c2ccc(C(O)C(F)(F)F)c(OC)c12 (centres unmarked) [Example 49, 6-(Cyclopropanecarboxamido)-4-((4-methoxy-1-methyl-5-(2,2,2-tritluoro-1-hydroxyethyl)-1H-indazol-3-yl)amino)-N-(methyl-d3)nicotinamide] | 4.1 nM | 83 µM (≈ 41.1 µg/mL) | 0.136 nM | 30.13 | 0.729 nM | 27.9 nM | – | – | – | – | – | – | 15.7 µL/min/mg | 88.4 min | –
[2H]C([2H])([2H])NC(=O)c1cnc(Nc2ccc(F)cn2)cc1Nc1cnn2ccc([C@H](O)C(F)(F)F)c(OC)c12 [Example 24, (S)-6-((5-fluoropyridin-2-yl)amino)-4-((4-methoxy-5-(2,2,2-trifluoro-1-hydroxyethyl)pyrazolo[1,5-a]pyridin-3-yl)amino)-N-(methyl-d3)nicotinamide] | 18.6 nM | 10.4 µM (≈ 5.27 µg/mL) | 0.066 nM | 281.8 | 3.87 nM | 34.6 nM | – | – | – | – | – | – | 24.6 µL/min/mg | 56.2 min | –
[2H]C([2H])([2H])NC(=O)c1cnc(NC(=O)C2CC2)cc1Nc1cnn2ccc(CC(F)(F)F)c(OC)c12 [Example 8, 6-(Cyclopropanecarboxamido)-4-((4-methoxy-5-(2,2,2-trifluoroethyl)pyrazolo[1,5-a]pyridin-3-yl)amino)-N-(methyl-d3)nicotinamide] | 3.39 nM | 18.6 µM (≈ 8.63 µg/mL) | 0.106 nM | 32.0 | 31.3 nM | 75.5 nM | – | – | – | – | – | – | – | – | –
[2H]C([2H])([2H])NC(=O)c1cnc(NC(=O)C2CC2)cc1Nc1cnn2ccc(C(O)C(F)(F)F)c(OC)c12 (centres unmarked) [Example 7, 6-(Cyclopropanecarboxamido)-4-((4-methoxy-5-(2,2,2-trifluoro-1-hydroxyethyl)pyrazolo[1,5-a]pyridin-3-yl)amino)-N-(methyl-d3)nicotinamide] | 11 nM | 42.9 µM (≈ 20.7 µg/mL) | 0.147 nM | 74.9 | 9.32 nM | 67.4 nM | – | – | – | – | – | – | – | – | –
[2H]C([2H])([2H])NC(=O)c1cnc(NC(=O)C2CC2)cc1Nc1cnn2ccc(C(C)C(F)(F)F)c(OC)c12 (single isomer, unassigned) [Example 9B, (S*)-6-(cyclopropanecarboxamido)-4-((4-methoxy-5-(1,1,1-trifluoropropan-2-yl)pyrazolo[1,5-a]pyridin-3-yl)amino)-N-(methyl-d3)nicotinamide] | 5.04 nM | 45.4 µM (≈ 21.7 µg/mL) | 0.08 nM | 63.0 | – | 290 nM | – | – | – | – | – | – | – | – | 54.2 nM
